US20180361032A1, “IMPLANTABLE ELECTROSPUN PATCHES FOR SITE-DIRECTED DRUG DELIVERY” (The Methodist Hospital, priority 2016, published 2018)

Test system: inflammation induced by the implant
Experiment: Expression of inflammation-related genes in sciatic nerve and surrounding muscle tissue after implant
Format: in vivo, rodent
Details: release of bupivacaine from the implant
From the text: FIG. 13A, FIG. 13B, FIG. 13C, FIG. 13D, and FIG. 13E show the expression of genes related to inflammation in sciatic nerve tissue: TNF-α (FIG. 13A); IL-1β (FIG. 13B); IL-6 (FIG. 13C); PTGS2 (COX-2) (FIG. 13D); and NOS2 (FIG. 13E); respectively; FIG. 14A, FIG. 14B, FIG. 14C, FIG. 14D, and FIG. 14E show the expression of genes related to inflammation in surrounding muscle tissue: COX-2 expression (FIG. 14A); IL-6 expression (FIG. 14B); TNF-α expression (FIG. 14C); IL-1β expression (FIG. 14D); and iNOS expression (FIG. 14E);

Which “inflammation induced by the implant” value does the source give for `CCCCN1CCCCC1C(=O)Nc1c(C)cccc1C` (stereo not shown) [bupivacaine] here?
The value was “decreased the inflammation induced by the implant”.
